Tests used:
blood lymphocytes = assay: Zinc dose response: lymphocyte response to mitogen PHA (thymidine uptake, 72 h culture); type: in vivo, human; conditions: for Lymphocyte response to PHA (stimulation index): adults, age 20-50 years
Procedure: The basic concept underlying the assessment of the most optimum nutrient amounts for a given age group uses the principle of “dose-response graphs”. At least four groups of individuals were provided with various amounts of a given nutrient and their immune responses were measured using established and accepted techniques. The amount of a nutrient that gave the best response was considered the optimum amount. Dose response graphs were determined for all vitamins and trace elements considered essential for human health, particularly immunity.
Data for the dose response chart for zinc in a group of 20 to 50 year old adults is shown in FIG. 1, with the total amount of zinc taken is shown for each group. To determine the magnitude of immune response, an aliquot of blood was withdrawn from each subject in the study, blood lymphocytes were separated, washed and mixed with the mitogen phytohemagglutinin (PHA) in previously determined optimum amount. The optimum amount of PHA used in the experiments was predetermined by a set of dose response graphs using lymphocytes of a healthy donor and four different concentrations of PHA. After culture in a sterile environment for 72 hours, the cells were washed and mixed with radioactive thymidine. The same steps were undertaken in a control sample in which only the culture medium was used, not PHA. The cells were washed and radioactivity determined.
Dietary intake of zinc was calculated based on three 24-hour recalls and by the food frequency questionnaire methods.

[1] = in vivo; cited from earlier work

| SMILES | immune response (blood lymphocytes; 12 mg of zinc intake, in combination with zinc from a balanced diet) | Lymphocyte response to PHA (stimulation index) (blood lymphocytes; supplemental zinc 12 mg) | Lymphocyte response to PHA (stimulation index) (blood lymphocytes; supplemental zinc 25 mg) | Lymphocyte response to PHA (stimulation index) (blood lymphocytes; supplemental zinc 50 mg) | biologic half-life in the body [1] |
| --- | --- | --- | --- | --- | --- |
| [Zn] [zinc] | best immune response | 78 | 48 | 41 | – |
| Cc1ncc(C[n+]2csc(CCO)c2C)c(N)n1 [Thiamin] | – | – | – | – | about 15 days |

From patent US20050281889A1, “Nutritional supplement for adults” (priority 2004, published 2005)
